This note sets out measurements from US12186317B2, “Inhibitors of alpha-amino-beta-carboxymuconic acid semialdehyde decarboxylase” (TES Pharma S.r.l., priority 2018, dated 2025).

The target in the assay is T1, hACMSD (ACMSD1) (Homo sapiens, UniProt Q8TDX5).
T1 construct: made in house; host or cells: Pichia pastoris
Description: Determination of ACMSD1 inhibition, spectrophotometrical in vitro assay (conversion of 3OH-anthranilic acid into ACMS). In kind it is biochemical. As to conditions: HAA concentration of 10 μM; recombinant ACMSD1 from Pichia pastoris; 25° C.; absorbance at 360 nm. As to the method:
The activity of compounds as inhibitors of ACMSD1 is determined in a spectrophotometrical in vitro assay. The pre-assay mixture is incubated and a compound of Formula (I) or (II), or a pharmaceutically acceptable salt thereof, and ACMSD1 solution is then added. The effect of ACMS concentration on the enzyme activity is investigated by varying 3-hydroxyanthranilic acid (30H-HA) concentration in the pre-assay mixture. Kinetic parameters are calculated from the initial velocity data using a Lineweaver-Burk plot.
The pre-assay mixture consisting of 3-hydroxyanthranilic acid (30H-HA), 3-hydroxyanthranilic acid, 3,4-diOxygenase (HAO), and a dialyzed crude extract of E. coli BL21 (DE3) cells expressing the recombinant enzyme, was incubated at 25° C. with monitoring of the increase in absorbance at 360 nm due to the formation of ACMS from 30H-HA. After the reaction was completed within ˜2 mins, an aliquot of ACMSD1 solution (prepared and purified from Pichia pastoris overexpressing the recombinant enzyme) was added, and the decrease in absorbance at 360 nm was followed at 15 second intervals. The effect of ACMS concentration on the enzyme activity was investigated by varying 30H-HA concentration from 2 to 20 μM. Kinetic parameters were calculated from the initial velocity data by using the Lineweaver-Burk plot.
The rate of the decrease in absorbance caused by ACMSD1 was calculated by subtracting that of the control reaction mixture without ACMSD from that described above. One unit of ACMSD activity was indicated as the amount of enzyme that converts 1 mmol of ACMS per minute at 25° C.
The enzymatic activity was determined at a HAA concentration of 10 μM in the presence of the compounds in Table 1 below. […] In Table 1, A is <0.1 μM; B is 0.1 to 1 μM; C is 1 to 10 μM; and D is >10 μM.

A value given as a limit tells only on which side of the number the result lay.

T1 sequence (Q8TDX5 whole entry): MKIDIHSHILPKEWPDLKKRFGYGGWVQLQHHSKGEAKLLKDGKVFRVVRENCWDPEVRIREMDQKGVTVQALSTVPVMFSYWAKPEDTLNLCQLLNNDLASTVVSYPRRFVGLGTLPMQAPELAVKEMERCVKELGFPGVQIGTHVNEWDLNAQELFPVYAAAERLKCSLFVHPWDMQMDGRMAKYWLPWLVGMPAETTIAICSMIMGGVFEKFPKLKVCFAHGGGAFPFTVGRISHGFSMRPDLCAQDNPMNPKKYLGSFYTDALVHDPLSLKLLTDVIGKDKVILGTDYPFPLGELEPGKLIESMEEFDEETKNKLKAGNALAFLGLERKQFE

As usually defined, the IC50 is the point on the concentration scale where inhibition reaches its midpoint. For `N#Cc1c(Br)nc(SCc2cccc(CC(=O)O)c2)nc1-c1cccs1` [I-5, [3-(4-Bromo-5-cyano-6-thiophen-2-yl-pyrimidin-2-ylsulfanylmethyl)-phenyl]-acetic acid], the IC50 is 100 to 1000 nM.
Turning to `N#Cc1c(Cc2ccccc2)cc(=O)[nH]c1SCc1cccc(CC(=O)O)c1` [I-23, [3-(4-Benzyl-3-cyano-6-oxo-1,6-dihydro-pyridin-2-ylsulfanylmethyl)-phenyl]-acetic acid], the concentration for half-maximal inhibition (IC50) was 1000 to 10000 nM.
For the compound `N#Cc1c(-c2cccs2)nc(SCc2cccc(-c3nn[nH]n3)c2)[nH]c1=O` [I-43], the IC50 was under 100 nM.
The value for `N#Cc1c(-c2cccs2)nc(NCc2cccc(Cc3nnn[nH]3)c2)[nH]c1=O` [I-49] was under 100 nM.
The value for `N#Cc1c(N)nc(SCc2cccc(CC(=O)O)c2)nc1-c1cccs1` [I-7, [3-(4-Amino-5-cyano-6-thiophen-2-yl-pyrimidin-2-ylsulfanylmethyl)-phenyl]-acetic acid] was 100 to 1000 nM; that for `N#Cc1c(-c2cccs2)nc(SCc2cccc(CC(=O)O)c2)nc1N1CCNCC1` [I-16, [3-(5-Cyano-4-piperazin-1-yl-6-thiophen-2-yl-pyrimidin-2-ylsulfanylmethyl)-phenyl]-acetic acid] was over 10000 nM; that for `N#Cc1c(NC2CC2)nc(SCc2cccc(CC(=O)O)c2)nc1-c1cccs1` [I-6, [3-(5-Cyano-4-cyclopropylamino-6-thiophen-2-yl-pyrimidin-2-ylsulfanylmethyl)-phenyl]-acetic acid] was 1000 to 10000 nM.
The value for `N#Cc1c(-c2cccs2)nc(SCc2cccc(CC(=O)O)c2)nc1N1CCOCC1` [I-15, [3-(5-Cyano-4-morpholin-4-yl-6-thiophen-2-yl-pyrimidin-2-ylsulfanylmethyl)-phenyl]-acetic acid] was 1000 to 10000 nM.
With `N#Cc1cnc(SCc2cccc(CC(=O)O)c2)nc1-c1cccs1` [I-8, [3-(5-Cyano-6-thiophen-2-yl-pyrimidin-2-ylsulfanylmethyl)-phenyl]-acetic acid], the IC50 lay within 100 to 1000 nM.
With `N#Cc1c(Cc2ccccc2)nc(SCc2nnn[nH]2)[nH]c1=O` [I-32] the figure was under 100 nM; with `N#Cc1cccc(CSc2nc(-c3cccs3)c(C#N)c(=O)[nH]2)c1` [I-11, 2-(3-Cyano-benzylsulfanyl)-6-oxo-4-thiophen-2-yl-1,6-dihydro-pyrimidine-5-carbonitrile], 1000 to 10000 nM.
For `O=c1cc(C(F)(F)F)nc(SCc2nnn[nH]2)[nH]1` [I-26, 2-(1H-Tetrazol-5-ylmethylsulfanyl)-6-trifluoromethyl-3H-pyrimidin-4-one], the IC50 was under 100 nM.
For the compound `N#Cc1c(-c2cccs2)nc(SCCC(=O)O)[nH]c1=O` [I-37], the IC50 was in the range of 1000 to 10000 nM.
Regarding `N#CCc1cccc(CSc2nc(-c3cccs3)c(C#N)c(=O)[nH]2)c1` [I-13, 2-(3-Cyanomethyl-benzylsulfanyl)-6-oxo-4-thiophen-2-yl-1,6-dihydro-pyrimidine-5-carbonitrile], the IC50 lay within 1000 to 10000 nM.
